In patent publication US10813920B2, “Drug for treating corneal endothelium by promoting cell proliferation or inhibiting cell damage” (THE DOSHISHA, priority 2013, dated 2020):

Test system: human corneal endothelial cells
Assay: BrdU uptake ELISA in cultured human corneal endothelial cells (Example 2)
Format: cell-based
Settings: ELISA after 3 days; 1, 3, 10, 30 μM; relative to control
Procedure: *The amount of IL-6 expression of human corneal endothelial cells was quantified by RT-PCR by the following method. Human corneal endothelial cells (n=3, passage 5) were cultured for 20 days in the presence of 10 μM of SB203580, and then RNA was extracted with RneasyMini (QIAGEN). 277 ng of total RNA was reverse-transcribed with RevertraAce (Toyobo) and cDNA synthesized into a template to perform PCR. 10 μl of PCR solution containing 1 μl of reaction mixture from single strand cDNA synthesis was heated for 1 minute at an initial temperature of 94° C. and then 1 minute at 94° C., 30 seconds at 54° C., and 30 seconds at 72° C. The temperature cycle was repeated 30 times. IL-6 sense primer: […] (SEQ ID NO: 1) IL-6 antisense primer: […] (SEQ ID NO: 2) *ELISA (BrdU): Cells were seeded on a 96-well culture plate at a seeding density of 5000 cells/well. […] The reaction was stopped with 1M sulfuric acid to measure the absorbance at 450 nm with a plate reader. […] The amount of IL-6 protein in a culture supernatant collected after 7 days was quantified in accordance with the manual of DuoSetELISA human IL-6 (R & D Cat # DY206). […] The plate was washed and the bound peroxidase was detected with a substrate solution (R&D Systems Cat # DY999). The coloring reaction was stopped with 2M of H2SO4 to read out the plate with Multimax (Promega) at […]. […]

C[S+]([O-])c1ccc(-c2nc(-c3ccncc3)c(-c3ccc(F)cc3)[nH]2)cc1 (stereo not shown) [SB203580, 4-(4-fluorophenyl)-2-(4-methylsulfinylphenyl)-5-(4-pyridyl)-1H-imidazole]
BrdU uptake: significantly promoted
